Assay results taken from US20240228481A1, “NOVEL SULFONAMIDE SERIES OF QR2 INHIBITORS TO TACKLE OXIDATIVE STRESS AND COGNITIVE DECLINE” (CARMEL HAIFA UNIVERSITY ECONOMIC CORPORATION LTD., priority 2021, published 2024).
Counter-ions that a name gives are not always drawn.

What was measured:
QR2 = target: T1, QR2 (Homo sapiens, UniProt P16083); assay: QR2 enzymatic activity assay (menadione/BNAH), absorbance readout at 350 nm; type: biochemical; design: purchased Sigma-Aldrich
T1 sequence (P16083 1-231): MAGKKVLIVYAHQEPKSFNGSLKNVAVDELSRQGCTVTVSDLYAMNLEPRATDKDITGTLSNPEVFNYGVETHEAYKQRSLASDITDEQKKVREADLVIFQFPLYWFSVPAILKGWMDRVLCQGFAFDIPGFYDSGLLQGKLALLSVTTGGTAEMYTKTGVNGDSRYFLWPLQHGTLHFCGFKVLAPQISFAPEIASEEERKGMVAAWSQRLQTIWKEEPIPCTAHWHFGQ

Solubility in water = type: physicochemical; conditions: HCl salt
Source text: In order to enable water-solubility so that an inhibitor could be easily applied to crystalized QR2, and to enable oral administration of the inhibitor and eliminate undesirable formulations, HCl was conjugated to YB-537 (see step 6 in methods section ‘Synthesis of Novel QR2 Inhibitors’ and Table 3). […] Using the water-soluble YB-537 to determine ligand-target interactions, purified human QR2 was co-crystalized in the presence of the inhibitor (FIG. 3A). […] YB-537 is bound to each of the monomers, and interacts with amino acids from both monomers, as well as with FAD. The plane of YB-537 stacks up parallel to the isoalloxazine ring of the FAD and the average distance between the planes of the two rings is 3.5 Å. Each FAD moiety forms 17 contacts within 3.5 Å to atoms from YB-537 and 48 contacts to 17 amino acids from one monomer, namely—H12, S17, F18, N19, S21, P103, L104, Y105, W106, F107, T148, T149, G150, G151, Y156, E194, and R201. YB-537 binds to the catalytic site through a series of hydrophobic and hydrogen bonds with both FAD and amino acids from both QR2 monomers, in a manner unique to it (FIG. 3B). Specifically, YB-537 forms 6 contacts to G150, G151, M155 and a hydrogen bond with N162 from one monomer (A) and 8 contacts to F127, 1129, F132, and F179 from the other monomer (B).

5×FAD mice = assay: Novel object recognition in 5×FAD mice; conditions: 5×FAD males
Experimental: Following the first exploration of the open field arena (described above), mice were returned to the same arena the next day, while the arena now contained two identical objects. Mice were allowed to explore the objects and the arena 3 times for 10 min, with an inter trial interval of 10 min. The following day one of the objects was replaced with a novel object, and the mice were returned to the arena and allowed to explore for 10 min. Mouse movement, exploration and nuzzling was automatically recorded with an Ikegami ICD-49E camera with EthoVision 14 (Noldus Information Technology). Discrimination of the novel object was assessed by calculating (time exploring novel object−time exploring familiar object)/(time exploring novel object+time exploring familiar object).

Structure (SMILES) | IC50 (QR2) [µM] | solubility in water (Solubility in water) | novel object discrimination (5×FAD mice)
Cc1cccn2cc(-c3cccc(S(=O)(=O)N4CCC(C)CC4)c3)nc12 [YB-800] | 0.02 |  | 
Cc1ccc(-c2cn3cccc(C)c3n2)cc1S(=O)(=O)N1CCNCC1 [YB-537, 8-methyl-2-(4-methyl-3-(piperazin-1-ylsulfonyl)phenyl)imidazo[1,2-a]pyridine hydrochloride] |  | complete solution | 0.06432±0.1285
